Assay results as given in PMC6316600, “Analgesic Activity of Acid-Sensing Ion Channel 3 (ASIС3) Inhibitors: Sea Anemones Peptides Ugr9-1 and APETx2 versus Low Molecular Weight Compounds” (Marine Drugs, 2018).
Entries after “also recorded” stand apart in the source; their conditions may differ. Bridge positions count the residues as written; N and C are the ends. Peptide text beside a SMILES is read from it.

Assays:
mice [1] = test: CFA-induced thermal hyperalgesia; format: in vivo, CD-1 mice; conditions: for Effect in CFA test at lowest dose / Dose dependence of effect, thermal hyperalgesia / Dose of maximal effect, thermal hyperalgesia / Reversal of thermal hyperalgesia, 1 mg/kg compared with 0.001–0.002 mg/kg / Thermal hyperalgesia result (in words): intramuscular; for Effect confirmed in independent experiment: sevanol 0.01 mg/kg, Ugr9-1 0.02 mg/kg, data not shown
Method: CFA-induced thermal hyperalgesia is a result of different inflammatory pathways’ action on thermal sensitivity of the paw. Injection of CFA into the hind paw provokes increased sensitivity to noxious mechanical and thermal stimuli together with swelling of the paw due to the inflammatory process. […] For APETx2 (Figure 4B), sevanol (Figure 4C), and Ugr9-1 (Figure 4D), the dose dependency of the analgesic effect was evaluated.
Figure 4 Effect of ligands on the CFA-induced thermal hyperalgesia test. Test was performed 2 h after intramuscular administration of ASIC3 antagonists. (A) Comparison between ligands at the dose of 1 mg/kg; (B–D) Dose-dependent chart of ligands’ effect. […] Results are presented as mean ± SEM (n = 7–8). * p < 0.05, ** p < 0.01, *** p < 0.001 versus saline group (ANOVA followed by a Tukey’s test).
(§1) Adult male CD-1 mice (Animal Breeding Facility Branch of Shemyakin-Ovchinnikov Institute of Bioorganic Chemistry, Russian Academy of Sciences, Pushchino, Russia) weighing 20–25 g were used. Animals that originally passed clinical examination that confirmed no deviations in health were divided into groups (at least eight male mice per group) using the principle of randomization. The average body weight of animals in each group was not statistically different between groups. Animals were housed at room temperature (23 ± 2 °C) and subjected to a 12-h light-dark cycle with food and water available ad libitum. All experiments were performed after receiving approval from the Animal Care and Use Committee of the Branch of the Institute of Bioorganic Chemistry, Russian Academy of Sciences (IBCh RAS) (Pushchino, Russia Federation). The samples were administered intramuscularly 2 h before testing (4 h in the open field test). The initial dose of 1 mg/kg was investigated for all samples, which was further reduced 5, 50, and 500 times for peptides.
(§2) CFA suspended in an oil/saline (1:1) emulsion was injected into the dorsal surfaces of the left hind paws of mice (20 µL/paw) 24 h before the samples’ intramuscular injection. The control mice received 20 µL of saline (intraplantar). The paw withdrawal latencies to thermal stimulation (53 °C) were measured 2 h after the sample injection. The paw diameter was evaluated before the CFA injection, before the samples and saline administration, and 2, 4, and 24 h after the administration using a digital calliper.
(§3) The data significance in animal tests was determined by an analysis of variance followed by a Tukey’s test. Data are presented as the mean ± SEM.

ASIC3 = conditions: cited from earlier work
Source text: An inhibition of ASIC3 was reported to be an attractive approach to producing analgesia. […] Other nonspecific substances can also influence ASIC3 activity.

mice [2] = test: CFA-induced paw oedema; format: in vivo, CD-1 mice; conditions: n = 7–8; for Reduction of inflammation (paw oedema): within 24 h; for Anti-inflammatory effect within 4 h: intramuscular, within 4 h after administration
Method: To reveal the anti-inflammatory effects of ASIC3 antagonists, paw oedema changes were also evaluated (Figure 5). […] APETx2 in a dose of 1 mg/kg reduced paw oedema by 16%, 24%, and 44% compared to the control group at 2, 4, and 24 h after administration, respectively. APETx2 at 0.2 mg/kg reduced inflammation by approximately 20% only 24 h after administration.
Figure 5 Anti-inflammatory effect of ligands. […] Results are presented as mean ± SEM (n = 7–8). * p < 0.05, ** p < 0.01, *** p < 0.001 versus saline group (ANOVA followed by a Tukey’s test).
as §1, §2, §3

Row | SMILES | Effect in CFA test at lowest dose (mice [1]; 0.002 mg/kg (Ugr9-1), 2 h before) | Dose dependence of effect, thermal hyperalgesia (mice [1]; 2 h before, n = 7–8) | Dose of maximal effect, thermal hyperalgesia (mice [1]; 2 h before, n = 7–8) | Reversal of thermal hyperalgesia, 1 mg/kg compared with 0.001–0.002 mg/kg (mice [1]; 2 h before, n = 7–8) | Thermal hyperalgesia result (in words) (mice [1]; 2 h before, n = 7–8) | Effect confirmed in independent experiment (mice [1]) | Inhibition of ASIC3 current components (ASIC3) | Reduction of inflammation (paw oedema) (mice [2]; 0.02 mg/kg intramuscular) | Anti-inflammatory effect within 4 h (mice [2]) | Reversal of thermal hyperalgesia, comparison at 1 mg/kg (mice [1]; 1 mg/kg intramuscular, 2 h before, hot plate 53 °C, n = 7–8) | Inhibition of ASIC3 / ASICs currents (ASIC3; sensory neurons and heterologous-expressed ASIC3) | Effect in CFA test at lowest dose (mice [1]; 0.001 mg/kg (sevanol), 2 h before) | Inhibition of transient and sustained ASIC3 currents (ASIC3) | Reduction of inflammation (paw oedema) (mice [2]; 2.5 mg/kg intramuscular)
1 | CC[C@H](C)[C@H](N)C(=O)N[C@@H](CO)C(=O)N[C@H](C(=O)N[C@@H](CC(=O)O)C(=O)N1CCC[C@H]1C(=O)N1CCC[C@H]1C(=O)N[C@H]1CSSC[C@@H](C(=O)NCC(=O)N[C@@H](C)C(=O)N[C@H](C(=O)O)C(C)C)NC(=O)CNC(=O)[C@H](Cc2ccc(O)cc2)NC(=O)[C@H](C)NC(=O)[C@H](CC(=O)O)NC(=O)[C@H](Cc2ccc(O)cc2)NC(=O)[C@H](C(C)C)NC(=O)[C@@H]2CSSC[C@H](NC(=O)[C@H](Cc3ccccc3)NC(=O)[C@H](CCCNC(=N)N)NC1=O)C(=O)N[C@@H](Cc1ccc(O)cc1)C(=O)N[C@@H](Cc1c[nH]cn1)C(=O)N[C@@H](CCCNC(=N)N)C(=O)N[C@@H](CC(=O)O)C(=O)NCC(=O)N[C@@H](CO)C(=O)NCC(=O)N[C@@H](CC(N)=O)C(=O)N2)[C@@H](C)CC [Ugr9-1] (H-ISIDPPCRFCYHRDGSGNCVYDAYGCGAV-OH; disulfide 7-26, 10-19; N-terminus and C-terminus assumed) | absence of the effect | bell-shaped; also recorded: nonlinear dose response | 0.02 mg/kg | did not differ significantly | reversed CFA-induced thermal hyperalgesia and prolonging withdrawal latency of the inflamed hind paw on a hot plate | confirmed in the independent experiment | inhibit both components of the ASIC3 current | 31% | did not produce significant anti-inflammatory effects within 4 h |  |  |  |  | 
2 | O=C(O)Cc1ccccc1Nc1c(Cl)cccc1Cl [diclofenac, reference compound] |  |  |  |  |  |  |  |  | did not produce significant anti-inflammatory effects within 4 h | equal potency in the reversal of thermal hyperalgesia, which exceeded the analgesic potency of sevanol and Ugr9-1 | inhibit ASICs currents directly on sensory neurons and heterologous-expressed ASIC3 channels |  |  | 
3 | O=C(O)C[C@H](C(=O)O)[C@@H](OC(=O)C1=Cc2cc(O)c(O)cc2[C@@H](c2ccc(O)c(O)c2)[C@@H]1C(=O)O[C@@H](C(=O)O)[C@H](CC(=O)O)C(=O)O)C(=O)O [sevanol] |  | bell-shaped; also recorded: nonlinear dose response | 0.01 mg/kg | did not differ significantly | reversed CFA-induced thermal hyperalgesia and prolonging withdrawal latency of the inflamed hind paw on a hot plate | confirmed in the independent experiment |  |  | did not produce significant anti-inflammatory effects within 4 h |  |  | absence of the effect | inhibited the amplitude of transient and sustained ASIC3 currents | 22%
